Source: patent US11109593B2, “Isoxazolin-5-one derivative and herbicide containing same as active ingredient” (HOKKO CHEMICAL INDUSTRY CO., LTD., priority 2017, dated 2021)

How the values were obtained:
Assay type in all cases: in vivo
Scirpus juncoides [1] = assay: Test Example 1: herbicidal effect test by treatment of rice paddy soil (immediately after seeding); settings: 120 g/10a active ingredient, dry weight vs untreated area, 14 days after treatment
Method in brief: (§1)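 Paddy soil in pots with compound fertilizer, puddled; 30 seeds per species sown at 0–1 cm, flooded ~3 cm, greenhouse. Water-diluted emulsions dropped onto water immediately after seeding at 120 g active ingredient per 10 ares, duplicate. Herbicidal rate (%) from plant dry weight versus untreated, 14 days after treatment.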

Echinochloa crus-galli [2] = assay: as above; settings: 120 g/10a active ingredient, dry weight vs untreated area, 14 days after treatment
Method in brief: as §1

[3] = tested on: broad leaf weeds (Lindernia pyxidaria and Monochoria vaginalis); assay: as above; settings: 120 g/10a active ingredient, dry weight vs untreated area, 14 days after treatment
Method in brief: as §1

Amaranthus viridis [4] = assay: Test Example 4: herbicidal effect test by treatment of leave and stem in dry field farming (seven days after seeding); settings: 120 g/10a active ingredient; emulsion sprayed seven days after seeding; evaluated 14 days after treatment
Method in brief: (§2)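 Twenty seeds per species were mixed into the top 1 cm of alluvial soil in 36 cm^2 pots; emulsions were sprayed seven days after seeding at 100 L per 10 ares (120 g active ingredient per 10 ares). Herbicidal rate (%) = {1 − treated/untreated mean dry weight} × 100, 14 days after treatment, duplicate.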

Echinochloa crus-galli [5] = assay: as above; settings: 120 g/10a active ingredient; emulsion sprayed seven days after seeding; evaluated 14 days after treatment
Method in brief: as §2

southern crabgrass [6] = assay: as above; settings: 120 g/10a active ingredient; emulsion sprayed seven days after seeding; evaluated 14 days after treatment
Method in brief: as §2

Chenopodium album [7] = assay: as above; settings: 120 g/10a active ingredient; emulsion sprayed seven days after seeding; evaluated 14 days after treatment
Method in brief: as §2

Scirpus juncoides [8] = assay: Test Example 2: herbicidal effect test by treatment during growing period in paddy rice cultivation (seven days after seeding); settings: 120 g/10a active ingredient, assessed 14 days after treatment, dry weight vs untreated area
Method in brief: (§3)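 Post-emergence paddy water application: compounds were formulated as emulsions, diluted and dropped into flooded pots seven days after sowing at a rate equivalent to 120 g per 10 ares. Efficacy was taken as dry-weight reduction relative to untreated controls after 14 days.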

Echinochloa crus-galli [9] = assay: as above; settings: 120 g/10a active ingredient, assessed 14 days after treatment, dry weight vs untreated area
Method in brief: as §3

[10] = tested on: broad leaf weeds (Lindernia pyxidaria and Monochoria vaginalis); assay: as above; settings: 120 g/10a active ingredient, assessed 14 days after treatment, dry weight vs untreated area
Method in brief: as §3

Amaranthus viridis [11] = assay: Test Example 3: herbicidal effect test by treatment of dry field farming soil (one day after seeding); settings: 120 g/10a active ingredient, evaluated 14 days after treatment
Method in brief: (§4)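 Dry-field alluvium pots; weed seeds incorporated in top 1 cm; soil spray of diluted emulsion 1 d after seeding, 120 g a.i./10 a in 100 L/10 a. Readout: % reduction of dry weight vs untreated, day 14, duplicates.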

Echinochloa crus-galli [12] = assay: as above; settings: 120 g/10a active ingredient, evaluated 14 days after treatment
Method in brief: as §4

southern crabgrass [13] = assay: as above; settings: 120 g/10a active ingredient, evaluated 14 days after treatment
Method in brief: as §4

Chenopodium album [14] = assay: as above; settings: 120 g/10a active ingredient, evaluated 14 days after treatment
Method in brief: as §4

SMILES	Herbicidal rate (%) Scirpus juncoides (Scirpus juncoides [1]) [%]	Herbicidal rate (%) Echinochloa crus-galli (Echinochloa crus-galli [2]) [%]	Herbicidal rate (%) Lindernia pyxidaria [3] [%]	Herbicidal rate (%) Monochoria vaginalis [3] [%]	herbicidal effect (herbicidal rate), Amaranthus viridis (Amaranthus viridis [4]) [%]	herbicidal effect (herbicidal rate), Echinochloa crus-galli (Echinochloa crus-galli [5]) [%]	herbicidal effect (herbicidal rate), southern crabgrass (southern crabgrass [6]) [%]	herbicidal effect (herbicidal rate), Chenopodium album (Chenopodium album [7]) [%]	Herbicidal rate (%) Scirpus juncoides (Scirpus juncoides [8]) [%]	Herbicidal rate (%) Echinochloa crus-galli (Echinochloa crus-galli [9]) [%]	Herbicidal rate (%) Lindernia pyxidaria [10] [%]	Herbicidal rate (%) Monochoria vaginalis [10] [%]	herbicidal rate, Amaranthus viridis (Amaranthus viridis [11]) [%]	herbicidal rate, Echinochloa crus-galli (Echinochloa crus-galli [12]) [%]	herbicidal rate, southern crabgrass (southern crabgrass [13]) [%]	herbicidal rate, Chenopodium album (Chenopodium album [14]) [%]
Cc1c(Cc2ccccc2NS(=O)(=O)C(F)(F)F)c(=O)on1CC1(C)CC1 [Compound 1-145]	100	100	100	100	0	90	50	40	80	90	60	80	40	90	80	40
Cc1c(Cc2ccccc2N(S(=O)(=O)C(F)(F)F)S(=O)(=O)C(F)(F)F)c(=O)on1CCS(C)(=O)=O [Compound 1-1006]	90	70	70	60	40	40	40	40	90	80	60	80	60	80	60	60
CCC(C)n1oc(=O)c(Cc2ccccc2N(C(=O)OC(C)C)S(=O)(=O)C(F)(F)F)c1C (stereo not shown) [Compound 1-642]	90	90	90	90	40	90	90	40	90	90	90	90	90	90	90	90
Cc1c(Cc2ccccc2N(S(C)(=O)=O)S(=O)(=O)C(F)(F)F)c(=O)on1CC(C)C [Compound 1-892]	90	100	90	90	40	50	40	40	90	90	80	80	90	90	90	80
Cc1c(Cc2ccccc2NS(=O)(=O)C(F)(F)F)c(=O)on1Cc1ccc(F)cc1 [Compound 1-183]	100	100	100	100	40	90	50	50	100	80	100	100	50	90	90	60
Cc1c(Cc2ccccc2N(C(=O)C2CC2)S(=O)(=O)C(F)(F)F)c(=O)on1CC(C)(C)C [Compound 1-407]	90	90	90	90	40	90	90	40	90	90	90	90	90	90	90	90
CCCC(c1ccccc1)n1oc(=O)c(Cc2ccccc2NS(=O)(=O)C(F)(F)F)c1C (stereo not shown) [Compound 1-212]	90	90	90	80	80	90	90	60	90	90	70	90	0	90	90	0
CCN(CC)C(=O)n1oc(=O)c(Cc2ccccc2NS(=O)(=O)C(F)(F)F)c1C [Compound 1-248]	50	60	90	80	40	80	40	0	90	40	90	90	50	70	80	60
COCC(C)n1oc(=O)c(Cc2ccccc2N(C(C)=O)S(=O)(=O)C(F)(F)F)c1C (stereo not shown) [Compound 1-304]	90	90	90	90	40	90	90	40	90	90	90	90	90	90	90	90
CCOC(=O)N(c1ccccc1Cc1c(C)n(C(C)c2ccccc2)oc1=O)S(=O)(=O)C(F)(F)F (stereo not shown) [Compound 1-626]	90	90	90	90	40	90	90	40	90	90	90	90	90	90	90	90
